# Data from the supplement of paper PMC10307832.
# Assays:
# Test in all cases: relative viability (nuclei count vs DMSO), 5 days (fraction); higher = more cells survive
# [1] = system: NCI-H520
# How it was run: (§1)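 Relative viability is defined as nuclei in treated wells over nuclei in vehicle wells. Duplicate plates were run and medians reported. Lung cancer cell lines in 1536-well plates were dosed by pin tool one day after seeding, with one drug or with a fixed anchor-drug dose plus five library-drug doses (not always all listed) in √10 steps, and nuclei were counted after 5 days.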
# [2] = system: COR-L23
# How it was run: as §1
# [3] = system: EPLC-272H
# How it was run: as §1
# [4] = system: NCI-H1563
# How it was run: as §1
# [5] = system: LCLC-103H
# How it was run: as §1
# [6] = system: SK-MES-1
# How it was run: as §1
# [7] = system: HCC-44
# How it was run: as §1
# [8] = system: HCC-827
# How it was run: as §1
# [9] = system: LU99A
# How it was run: as §1
# [10] = system: NCI-H2085
# How it was run: as §1
# [11] = system: NCI-H1944
# How it was run: as §1
# [12] = system: ChaGo-K-1
# How it was run: as §1
# [13] = system: EMC-BAC-2
# How it was run: as §1
# [14] = system: NCI-H1651
# How it was run: as §1
# [15] = system: NCI-H838
# How it was run: as §1
# [16] = system: NCI-H2023
# How it was run: as §1
# [17] = system: NCI-H1395
# How it was run: as §1
# [18] = system: NCI-H1793
# How it was run: as §1
# [19] = system: H3255
# How it was run: as §1
# [20] = system: NCI-H650
# How it was run: as §1
# [21] = system: NCI-H2087
# How it was run: as §1
# [22] = system: NCI-H2405
# How it was run: as §1
smiles,measurement,setting,value
CCN(CC)CCCCNc1ncc2cc(-c3cc(OC)cc(OC)c3)c(NC(=O)NC(C)(C)C)nc2n1 + Nc1nc2[nH]cc(CCc3ccc(C(=O)N[C@@H](CCC(=O)O)C(=O)O)cc3)c2c(=O)[nH]1 [Pemetrexed] (partner 0.2 µM),relative viability,[1]; first compound 0.01 µM,0.8
same,relative viability,[1]; first compound 0.03162 µM,0.694
same,relative viability,[1]; first compound 0.1 µM,0.555
same,relative viability,[1]; first compound 0.3162 µM,0.511
same,relative viability,[1]; first compound 1 µM,0.314
same,relative viability,[2]; first compound 0.01 µM,0.208
same,relative viability,[2]; first compound 0.03162 µM,0.188
same,relative viability,[2]; first compound 0.1 µM,0.192
same,relative viability,[2]; first compound 0.3162 µM,0.196
same,relative viability,[2]; first compound 1 µM,0.192
same,relative viability,[3]; first compound 0.01 µM,0.386
same,relative viability,[3]; first compound 0.03162 µM,0.271
same,relative viability,[3]; first compound 0.1 µM,0.334
same,relative viability,[3]; first compound 0.3162 µM,0.317
same,relative viability,[3]; first compound 1 µM,0.26
same,relative viability,[4]; first compound 0.01 µM,0.72
same,relative viability,[4]; first compound 0.03162 µM,0.601
same,relative viability,[4]; first compound 0.1 µM,1.02
same,relative viability,[4]; first compound 0.3162 µM,0.737
same,relative viability,[4]; first compound 1 µM,0.633
same,relative viability,[5]; first compound 0.01 µM,0.444
same,relative viability,[5]; first compound 0.03162 µM,0.488
same,relative viability,[5]; first compound 0.1 µM,0.485
same,relative viability,[5]; first compound 0.3162 µM,0.457
same,relative viability,[5]; first compound 1 µM,0.533
same,relative viability,[6]; first compound 0.01 µM,1.11
same,relative viability,[6]; first compound 0.03162 µM,0.94
same,relative viability,[6]; first compound 0.1 µM,1.05
same,relative viability,[6]; first compound 0.3162 µM,1.07
same,relative viability,[6]; first compound 1 µM,0.98
same,relative viability,[7]; first compound 0.01 µM,0.682
same,relative viability,[7]; first compound 0.03162 µM,0.705
same,relative viability,[7]; first compound 0.1 µM,0.634
same,relative viability,[7]; first compound 0.3162 µM,0.625
same,relative viability,[7]; first compound 1 µM,0.721
same,relative viability,[8]; first compound 0.01 µM,0.266
same,relative viability,[8]; first compound 0.03162 µM,0.261
same,relative viability,[8]; first compound 0.1 µM,0.265
same,relative viability,[8]; first compound 0.3162 µM,0.269
same,relative viability,[8]; first compound 1 µM,0.244
same,relative viability,[9]; first compound 0.01 µM,0.206
same,relative viability,[9]; first compound 0.03162 µM,0.177
same,relative viability,[9]; first compound 0.1 µM,0.214
same,relative viability,[9]; first compound 0.3162 µM,0.177
same,relative viability,[9]; first compound 1 µM,0.195
same,relative viability,[10]; first compound 0.01 µM,0.882
same,relative viability,[10]; first compound 0.03162 µM,0.898
same,relative viability,[10]; first compound 0.1 µM,0.894
same,relative viability,[10]; first compound 0.3162 µM,1.02
same,relative viability,[10]; first compound 1 µM,0.86
same,relative viability,[11]; first compound 0.01 µM,0.603
same,relative viability,[11]; first compound 0.03162 µM,0.804
same,relative viability,[11]; first compound 0.1 µM,0.705
same,relative viability,[11]; first compound 0.3162 µM,0.631
same,relative viability,[11]; first compound 1 µM,0.605
same,relative viability,[12]; first compound 0.01 µM,0.269
same,relative viability,[12]; first compound 0.03162 µM,0.407
same,relative viability,[12]; first compound 0.1 µM,0.267
same,relative viability,[12]; first compound 0.3162 µM,0.272
same,relative viability,[12]; first compound 1 µM,0.265
same,relative viability,[13]; first compound 0.03162 µM,0.46
same,relative viability,[13]; first compound 0.1 µM,0.491
same,relative viability,[13]; first compound 0.3162 µM,0.479
same,relative viability,[13]; first compound 1 µM,0.489
same,relative viability,[14]; first compound 0.01 µM,0.597
same,relative viability,[14]; first compound 0.03162 µM,0.635
same,relative viability,[14]; first compound 0.1 µM,0.643
same,relative viability,[14]; first compound 0.3162 µM,0.787
same,relative viability,[14]; first compound 1 µM,0.495
same,relative viability,[15]; first compound 0.01 µM,0.242
same,relative viability,[15]; first compound 0.03162 µM,0.245
same,relative viability,[15]; first compound 0.1 µM,0.225
same,relative viability,[15]; first compound 0.3162 µM,0.234
same,relative viability,[15]; first compound 1 µM,0.224
same,relative viability,[16]; first compound 0.01 µM,0.264
same,relative viability,[16]; first compound 0.03162 µM,0.225
same,relative viability,[16]; first compound 0.1 µM,0.323
same,relative viability,[16]; first compound 0.3162 µM,0.264
same,relative viability,[16]; first compound 1 µM,0.219
same,relative viability,[17]; first compound 0.01 µM,0.898
same,relative viability,[17]; first compound 0.03162 µM,0.787
same,relative viability,[17]; first compound 0.1 µM,0.955
same,relative viability,[17]; first compound 0.3162 µM,1.06
same,relative viability,[17]; first compound 1 µM,0.607
same,relative viability,[18]; first compound 0.01 µM,0.88
same,relative viability,[18]; first compound 0.03162 µM,0.815
same,relative viability,[18]; first compound 0.1 µM,0.988
same,relative viability,[18]; first compound 0.3162 µM,0.949
same,relative viability,[18]; first compound 1 µM,0.548
same,relative viability,[19]; first compound 0.01 µM,0.626
same,relative viability,[19]; first compound 0.03162 µM,0.568
same,relative viability,[19]; first compound 0.1 µM,0.615
same,relative viability,[19]; first compound 0.3162 µM,0.632
same,relative viability,[19]; first compound 1 µM,0.513
same,relative viability,[20]; first compound 0.01 µM,0.877
same,relative viability,[20]; first compound 0.03162 µM,0.842
same,relative viability,[20]; first compound 0.1 µM,1.04
same,relative viability,[20]; first compound 0.3162 µM,1.03
same,relative viability,[20]; first compound 1 µM,0.948
same,relative viability,[21]; first compound 0.01 µM,0.716
same,relative viability,[21]; first compound 0.03162 µM,0.637
same,relative viability,[21]; first compound 0.1 µM,0.746
same,relative viability,[21]; first compound 0.3162 µM,0.645
same,relative viability,[21]; first compound 1 µM,0.727
same,relative viability,[22]; first compound 0.01 µM,0.994
same,relative viability,[22]; first compound 0.03162 µM,1.06
same,relative viability,[22]; first compound 0.1 µM,1.14
same,relative viability,[22]; first compound 0.3162 µM,1.3
same,relative viability,[22]; first compound 1 µM,1.04
